Laboratory results taken from patent US20230172206A1 (BASF SE, priority 2020, published 2023).

Legend:
[1] = tested on: Phakopsora pachyrhizi (F129L); assay: Protective control of soybean rust on soybeans (PHAKPA P6); type: in vivo; details: soybean rust F129L isolate; for % PHAKPA (F129L) Disease level P6 at 4 ppm: protective P6, 4 ppm; for % PHAKPA (F129L) Disease level P6 at 16 ppm: protective P6, 16 ppm
[2] = tested on: Phakopsora pachyrhizi (F129L); assay: Protective control of soybean rust on soybeans (PHAKPA P2); type: in vivo; details: soybean rust F129L isolate; for % PHAKPA (F129L) Disease level P2 at 4 ppm: protective P2, 4 ppm; for % PHAKPA (F129L) Disease level P2 at 16 ppm: protective P2, 16 ppm

| Structure (SMILES) | % PHAKPA (F129L) Disease level P6 at 4 ppm [1] [%] | % PHAKPA (F129L) Disease level P6 at 16 ppm [1] [%] | % PHAKPA (F129L) Disease level P2 at 4 ppm [2] [%] | % PHAKPA (F129L) Disease level P2 at 16 ppm [2] [%] |
| --- | --- | --- | --- | --- |
| CO/N=C(/C(=O)OC)c1cccc(C)c1CO/N=C(\C)c1ccc(OC(F)(F)F)cc1C [compound 259] | 93 | 40 | 80 | 17 |
| CNC(=O)/C(=N/OC)c1cccc(C)c1CO/N=C(\C)c1ccc(F)cc1C(F)(F)F [compound 260] | 22 | 0 | 22 | 0 |
| CNC(=O)/C(=N/OC)c1cccc(C)c1CO/N=C(\C)c1ccc(OC(F)(F)F)cc1C [compound 261] | 87 | 32 | 70 | 9 |
| CNC(=O)/C(=N/OC)c1cccc(C)c1CO/N=C(\C)c1ccc(F)cc1Cl [compound 262] | 47 | 4 | 63 | 1 |
| CO/N=C(/C(=O)OC)c1cccc(C)c1CO/N=C(\C)c1ccc(F)cc1C(F)(F)F [compound 263] | 73 | 22 | 80 | 15 |
| CO/N=C(/C(=O)OC)c1cccc(C)c1CO/N=C(\C)c1ccc(F)cc1F [compound 266] | 90 | 43 | 67 | 18 |
| CNC(=O)/C(=N/OC)c1cccc(C)c1CO/N=C(\C)c1ccc(F)cc1F [compound 267] | 10 | 4 | 2 | 0 |
| CO/N=C(/C(=O)OC)c1cccc(C)c1CO/N=C(\C)c1ccc(OC(F)(F)F)cc1Cl [compound 268] | 60 | 17 | 63 | 6 |
| CO/N=C(/C(=O)OC)c1cccc(C)c1CO/N=C(\C)c1ccc(OC(F)(F)F)cc1F [compound 269] | 18 | 0 | 5 | 0 |
| CNC(=O)/C(=N/OC)c1cccc(C)c1CO/N=C(\C)c1ccc(OC(F)(F)F)cc1F [compound 270] | 0 | 1 | 3 | 0 |
| CNC(=O)/C(=N/OC)c1cccc(C)c1CO/N=C(\C)c1ccccc1COC [compound 277] | 100 | 100 | 100 | 60 |
| CNC(=O)/C(=N/OC)c1cccc(C)c1CO/N=C(\C)c1cc(C)ccc1C [compound 278] | 90 | 93 | 90 | 60 |
| CNC(=O)/C(=N/OC)c1cccc(C)c1CO/N=C(\C)c1cccc(N2CC(F)(F)C2)c1 [compound 282] |  | 18 |  | 15 |
| CO/N=C(/C(=O)OC)c1cccc(C)c1CO/N=C(\C)c1c(F)cccc1Cl [compound 283] | 87 | 22 | 83 | 30 |
| CNC(=O)/C(=N/OC)c1cccc(C)c1CO/N=C(\C)c1c(F)cccc1Cl [compound 284] | 62 | 34 | 63 | 44 |
| CO/N=C(/C(=O)OC)c1cccc(C)c1CO/N=C(\C)c1c(C)cccc1F [compound 285] | 90 | 35 | 87 | 50 |
| C#Cc1cc(F)ccc1/C(C)=N/OCc1c(C)cccc1/C(=N\OC)C(=O)NC [compound 286] | 97 | 27 | 67 | 15 |
| CNC(=O)/C(=N/OC)c1cccc(C)c1CO/N=C(\C)c1ccccc1C1CC1(F)F (stereo not shown) [compound 288] | 97 | 20 | 87 | 30 |
